Measurements from ChEMBL document CHEMBL1140349, “A new simple and high-yield synthesis of suberoylanilide hydroxamic acid and its inhibitory effect alone or in combination with retinoids on proliferation of human prostate cancer cells” (J Med Chem, 2005).

Legend:
[1] = system: LNCaP; assay: Concentration required to inhibit growth of human LNCaP prostate cancer cells; assay type: functional
[2] = system: LNCaP; assay: Concentration required to inhibit human LNCaP prostate carcinoma cells; assay type: functional, cell-based

Q: How did the Growth inhibition [1] turn out when `CC1=C(/C=C/C(C)=C/C=C/C(C)=C/C(=O)Nc2ccc(O)cc2)C(C)(C)CCC1n1ccnc1` (configuration not stated) was run?
A: 5 µM

Q: What about the IC50 [2] of the same compound?
A: 5.5 µM
